Test results from US10487056B2, “Small molecule androgen receptor inhibitors and methods of use thereof” (GEORGETOWN UNIVERSITY, priority 2015, dated 2019).

Key:
Format in all cases: cell-based
AR [1] = assay: 22Rv1-ARE-luc androgen-response element luciferase reporter assay; settings: range of doses, 24 hours
Description: VCaP and CWR22Rv1 (referred to as 22Rv1) cells were transduced with ARE-luciferase Cignal Lenti Pathway Reporter (Qiagen; Valencia, Calif.) and cultured as described above in the presence of 1 μg/mL puromycin. Following antibiotic selection, cells stably expressing ARE-luciferase were isolated, cloned and cultured to generate a stable ARE-reporter cell lines.

22Rv1 cells [2] = assay: MTT cell viability assay, 22Rv1 cells; settings: 3 days
Description: Cells were treated in the manner indicated below for the specified period of time. MTT assay was performed as described in Amin et al., Mol. Cancer Ther., 13:341-52 (2014).
To determine the effects of SH-I-125 on prostate cancer cell growth, 22Rv1 cells were treated with SH-I-125 and cell viability was measured after a period of 3 days. […]. In comparison, non-tumorigenic primary prostate epithelial cells (PrEC) retained 80% viability in the presence of a similar range of doses of SH-I-125, showing that tumorigenic cells are more susceptible to the growth inhibitory properties of SH-I-125 compared to non-tumorigenic cells (FIG. 8B). […] Staurosporine was used as a positive control for cell death induction in live and dead assays (FIG. 9C).

22Rv1 cells [3] = assay: Caspase-Glo 3/7 activity assay, 22Rv1 cells; settings: 3 days
Description: 22Rv1 cells were treated with SH-I-125 (1 μM) for one, two, or three days, and caspase 3/7 activity was measured using Caspase-Glo 3/7 substrates. […] Data represent mean of three independent experiments with quadruplicate samples; bars, SEM. ***, p value <0.001 determined by ANOVA.
(§1) Caspase 3/7 activity was measured using Caspase-Glo 3/7 substrates. Data represent mean of three independent experiments with quadruplicate samples; bars, SEM. ***, p value <0.001 determined by ANOVA.
[…]; Madison, Wis.).
. […] Staurosporine was used as a positive control for apoptosis induction (FIG. 10B).

VCaP cells = assay: Caspase-Glo 3/7 activity assay, VCaP cells; settings: 3 days
Description: as §1

AR and AR-V7 = assay: Western blot of AR and AR-V7 levels in 22Rv1 cells; settings: 3 days, SH-I-125 at 1 μM
Description: AR levels were assessed by Western blotting. β-actin was used as a loading control.
(§2) AR and AR-V7 levels were assessed. β-actin was used as a loading control.
as §2
MG132 (5 μM), a known proteasome inhibitor, was added on Day 2. AR expression was assessed by Western blotting. β-actin was used as a loading control.

VCaP-MDVR cells = assay: Cell viability (MTT), VCaP-MDVR cells; settings: MDV3100, ARN-509 10 μM, SH-I-125 range, 3 days
Description: (§6) Cell viability was measured using the MTT assay.

22Rv1-MDVR cells = assay: Cell viability (MTT), 22Rv1-MDVR cells; settings: MDV3100, ARN-509 10 μM, SH-I-125 range, 3 days
Description: as §6

AR [4] = assay: VCaP-MDVR-ARE-luc luciferase reporter assay; settings: VCaP-MDVR-ARE-luc cells, range of doses, 24 hours
Description: (§3) […]. Luciferase activity was measured and plotted as a percentage of control. Data represent the mean of three independent experiments with quadruplicate samples; bars, SEM. ***, p value <0.001 determined by ANOVA.
(§4) VCaP-MDVR and 22Rv1-MDVR stably expressing ARE-luciferase construct (VCaP-MDVR-ARE-luc and 22Rv1-MDVR-ARE-luc) were generated as described above in the Materials and Methods section. […].

AR [5] = assay: 22Rv1-MDVR-ARE-luc luciferase reporter assay; settings: 22Rv1-MDVR-ARE-luc cells, range of doses, 24 hours
Description: as §3, §4

AR [6] = assay: Immunofluorescence staining of AR in 22Rv1-MDVR cells; settings: MDV3100 10 μM, ARN509 10 μM or SH-I-125 1 μM, 24 hours
Description: […]. AR and AR-V7 expression levels were assessed.
(§5) Immunofluorescence staining was performed as described in Amin et al., Mol. Cancer Ther., 13:341-52 (2014).

AR [7] = assay: Immunofluorescence staining of AR and PSA in VCaP-MDVR cells; settings: DHT 1 nM, MDV3100 10 μM or SH-I-125 1 μM, 24 hours
Description: AR and PSA expression levels were assessed.
as §5

SMILES | inhibitory effect on ARE-luciferase activity (plateau) (AR [1]) [%] | prevention of growth compared with SH-I-125 (22Rv1 cells [2]) | caspase 3/7 activity (22Rv1 cells [3]) | caspase 3/7 activity (VCaP cells) | cellular AR and AR-V7 levels (AR and AR-V7) | cell growth / viability (VCaP-MDVR cells) | cell growth / viability (22Rv1-MDVR cells) | reduction of luciferase activity (AR [4]) [%] | luciferase activity (AR activity) (AR [5]) | AR nuclear localization (AR [6]) | AR expression / nuclear localization (AR [7]) | PSA expression (AR [7])
CNC(=O)c1ccc(N2C(=S)N(c3cnc(C#N)c(C(F)(F)F)c3)C(=O)C23CCC3)cc1F [ARN-509] | 50 | significantly less effective | did not have a similar effect | did not have a similar effect | no effect | continued proliferation | continued proliferation | 50 | unchanged from control | unaffected |  | 
CNC(=O)c1ccc(N2C(=S)N(c3ccc(C#N)c(C(F)(F)F)c3)C(=O)C2(C)C)cc1F [MDV3100] |  | significantly less effective | did not have a similar effect | did not have a similar effect | no effect | continued proliferation | continued proliferation | 50 | unchanged from control | unaffected | AR expression was not attenuated | continued to inhibit PSA expression
